This is an account of results in patent US4564639A, “N-(2,6-Difluorobenzoyl-N-'-(2-fluoro-4-halophenyl)urea” (priority 1982, dated 1986).

Data set [1] concerns Chilo suppressalis. The data set can be described thus: Insecticidal effect against Chilo suppressalis, dipped rice seedlings. The data set is classed as in vivo. The following applies: 96 h, read-out: Mortality, % (spraying concn.). As to the method: (§1) The mortalities in Test Examples 1 through 3 were calculated by the formula as mentioned below: [formula]
Insecticidal effect against Chilo suppressalis
By the same procedure as in Example 9, the test compounds comprising the compounds of the present invention, i.e. Compound Nos. 1, 2, 3 and 4, and control compounds, i.e. Compounds A through G, were processed into wettable powder, respectively, and the aqueous solutions of 0.4 and 2 ppm in concentration were prepared therefrom by the same method as stated under (a) of Test Example 1, whereby 10 rice seedlings (the height of a plant of 2 cm) were dipped in each of the insecticide solutions for 30 minutes. The seedlings thus treated were placed in the respective glass containers (diameter of 2 cm and depth of 5 cm), into which 10 third-instar larvae of Chilo suppressalis were released. The containers were covered with aluminum foil and allowed to stand in a room (25° C.), and a number of dead larvae 4 days after the larvae were released was checked.

The test system of data set [2] is Spodoptera litura. Put plainly: Insecticidal effect against Spodoptera litura, direct spraying on larvae (Table 1, II). The following applies: read-out: mortality (II, spraying concn.). The data set is classed as in vivo. As to the method:
(§2) Insecticidal effect against Spodoptera litura
(b) By the same procedure as in Example 7, the test compounds comprising the compounds of the present invention, i.e. Compound Nos. 1, 2, 3 and 4, and control compounds, i.e. Compounds A through G, were each processed into emulsifiable concentrates, which were then diluted with water to produce the aqueous solutions (containing 0.03 % v/v of added spreader, Dyne® (produced by Takeda Chemical Industries, Japan)) containing 10 and 50 ppm of the test compounds, respectively. 20 ml of each of the aqueous solutions was sprayed on 10 third-instar larvae of Spodoptera litura placed in a cage of wire netting. 30 minutes after the spraying, the larvae were taken out of the cage of wire netting and placed in an ice cream cup (diameter of 6 cm and depth of 4 cm) containing soybean leaves, and a number of dead larvae was checked in accordance with the same method as the examination method as stated under (a) except that the larvae were allowed to stand for 48 hours in place of 96 hours.
as §1

For data set [3], the system named is Spodoptera litura. The data set can be described thus: Insecticidal effect against Spodoptera litura, leaf spraying (Table 1, I). Format: in vivo. To be noted: read-out: mortality (I, spraying concn.). As to the method:
as §2
(a) The test compounds which comprise:
The above test compounds and control compounds were each processed into wettable powders in accordance with the same formula as in Example 9, followed by dilution with water to prepare emulsions containing 0.4 and 2 ppm, respectively. A spreader, Dyne® (produced by Takeda Chemical Industries, Japan), was added to the emulsions in the proportion of 0.03 volume % against the total volume, respectively, and 20 ml of each of the emulsions so obtained was sprayed by use of a spray gun (spraying pressure of 1 kg/cm^2) on seedlings (14 days after germination) of soybean grown in pots in a spray chamber. 2 hours after spraying, two true leaves were cut away and contained each in their respective ice-cream cup (diameter of 6 cm and depth of 4 cm), into which 10 third-instar larvae of Spodoptera litura was released. After the releasing of larvae, the cups were placed in a room (25° C.), and the number of larvae, […] was checked.
as §1

For data set [4], the system named is Plutella xylostella. Put plainly: Insecticidal effect against Plutella xylostella, sprayed radish seedlings. The data set is classed as in vivo. How it is done: as §1
Insecticidal effect against Plutella xylostella
By the same procedure as in Example 9, the test compounds comprising the compounds of the present invention, i.e., Compound Nos. 1, 2, 3 and 4, and control compounds, i.e. Compounds A through G, were processed into wettable powder, and the aqueous solutions of 50 ppm in concentration were prepared therefrom by the same method as stated under (a) of Test Example 1. 20 ml of each of the aqueous solutions was sprayed on seedlings of radish (25 days after germination) grown in pots in accordance with the same method as described under (a) of Test Example 1. 2 hours after the spraying, two true leaves were cut away and contained in their respective ice cream cups (diameter of 6 cm and depth of 4 cm), into which 10 second-instar larvae of Plutella xylostella were released. After the larvae were released, the above-mentioned cups were placed in a room (25° C.), and a number of dead larvae after 48 hours was checked.

Data set [5] concerns Spodoptera litura. Put plainly: Insecticidal effect against Spodoptera litura, soil treatment with granules (Table 1, III). The following applies: 96 h, 250 mg of 2 weight % granules in soil of potted soybean, leaves cut 10 days after treatment, third-instar larvae, read-out: mortality (III, treatment amount). The data set is classed as in vivo. As to the method:
as §2
(c) Using the compounds of the present invention, i.e. Compound Nos. 1, 2, 3 and 4, and control compounds, i.e. Compounds A through G, as the test compounds, granules containing 2 weight % of the test compounds were prepared by the same procedure as in Example 13, and 250 and 500 mg of each of the granules were admixed, for the purpose of treatment, into the soil around roots of soybean plants grown in pots (diameter of 9 cm), respectively. The pots so treated were placed in a glass room (28° C.), and 10 days after the treatment, two true leaves were cut away and contained each in ice cream cups (diameter of 6 cm and depth of 4 cm). 10 third-instar larvae of Spodoptera litura were released into each of the ice cream cups, and a number of dead larvae was checked in accordance with the same method as the examination method as stated under (a).
as §1

Data set [6] in a line: Toxicity to fishes. Set-up: species or system Orizias latipes. The following applies: in vivo; 72 hours later, orange-red killifish; read-out: TLm (the concentration at which 50% of the test fish dies).
Data set [7] in a line: Oral toxicity in mice. The following applies: mouse, in vivo.
For data set [8], the system named is insect. The data set can be described thus: Insecticidal and ovicidal effect (general statement). The data set is classed as in vivo. To be noted: in words.
Data set [9] deals with plant body. Put plainly: Penetration into the plant body (general statement). To be noted: in words.
Setting [10] is: 0.4 ppm, rice seedlings dipped 30 minutes, third-instar larvae, 4 days.
The mark [11] stands for this setting: 2 ppm, rice seedlings dipped 30 minutes, third-instar larvae, 4 days.
[12] abbreviates: emulsifiable concentrate solution sprayed on third-instar larvae, 48 hours.
[13] abbreviates: 0.4 ppm, wettable powder emulsion sprayed on soybean seedlings, third-instar larvae, 96 hours.
Where [14] appears, read: 2 ppm, wettable powder emulsion sprayed on soybean seedlings, third-instar larvae, 96 hours.
[15] abbreviates: 50 ppm sprayed on radish seedlings, second-instar larvae, 48 hours, read-out: Mortality, %.

Each structure is given as a SMILES string. Read-outs that look alike come from different tables or passages of the source.

One may read the mortality as the share of the test organisms that died. Turning to `O=C(NC(=O)c1c(F)cccc1F)Nc1ccc(Cl)cc1` [Compound A, N-2,6-difluorobenzoyl-N'-4-chlorophenylurea], the mortality at 0.4 ppm turned out to be 5% in [1] (setting [10]) and 20% in data set [3] (setting [13]). The figures for the mortality at 2 ppm in data set [1] (setting [11]) and in data set [3] (setting [14]) were 40% and 30%, respectively. Further, the mortality at 10 ppm in data set [2] (10 ppm, emulsifiable concentrate solution sprayed on third-instar larvae, 48 hours) was determined as 0%. In addition, the results for the mortality at 50 ppm in data set [2] (setting [12]) and in [4] (48 h) were 10% and 20%, respectively.

With `O=C(NC(=O)c1c(Cl)cccc1Cl)Nc1ccc(Cl)cc1Cl` [Compound B, N-2,6-dichlorobenzoyl-N'-2,4-dichlorophenylurea], the mortality at 0.4 ppm in data set [1] (setting [10]) is 0%. The mortality at 2 ppm in data set [1] (setting [11]) was found to be 0%. The mortality at 250 mg in data set [5] came to 0%. The mortality at 50 ppm in [4] (setting [15]) came to 0%.

On to `O=C(NC(=O)c1c(Cl)cccc1Cl)Nc1ccc(Cl)c(F)c1` [Compound C, N-2,6-dichlorobenzoyl-N'-3-fluoro-4-chlorophenylurea], for which the mortality at 0.4 ppm in data set [1] (setting [10]) was determined as 0%; in data set [3] (setting [13]), 20%. For the same compound, the mortality at 2 ppm in [1] (setting [11]) worked out at 0%; in data set [3] (setting [14]), 30%. In addition, the mortality at 250 mg in data set [5] was 0%. In data set [4] (setting [15]), the mortality at 50 ppm was found to be 10%.

In the case of `O=C(NC(=O)c1c(F)cccc1F)Nc1ccc(Cl)c(F)c1` [Compound D, N-2,6-difluorobenzoyl-N'-3-fluoro-4-chlorophenylurea], the mortality at 0.4 ppm in data set [1] (setting [10]) came out at 10%; in data set [3] (setting [13]) it was 25%. The mortality at 2 ppm in data set [1] (setting [11]) and in data set [3] (setting [14]) was 45% each time. In addition, the mortality at 250 mg in [5] came out at 0%. Moreover, the figures for the mortality at 50 ppm in data set [2] (setting [12]) and in data set [4] (setting [15]) were 30% and 45%, respectively.

With `O=C(NC(=O)c1c(F)cccc1F)Nc1ccc(Cl)c(Cl)c1` [Compound E, N-2,6-difluorobenzoyl-N'-3,4-dichlorophenylurea], the mortality at 0.4 ppm is 0% in data set [1] (setting [10]) and 20% in data set [3] (setting [13]). Besides, the mortality at 2 ppm in [1] (setting [11]) amounted to 0%; in [3] (setting [14]), 40%. For the same compound, the mortality at 250 mg in data set [5] was 0%. Besides, in data set [4] (setting [15]), the mortality at 50 ppm was found to be 40%.

On to `O=C(NC(=O)c1c(Cl)cccc1Cl)Nc1ccc(F)cc1F` [Compound F, N-2,6-dichlorobenzoyl-N'-2,4-difluorophenylurea], for which the mortality at 0.4 ppm in [1] (setting [10]) came to 0%. The mortality at 2 ppm in data set [1] (setting [11]) turned out to be 0%. For the same compound, the mortality at 250 mg in data set [5] is 0%. Also, in data set [4] (setting [15]), the mortality at 50 ppm amounted to 20%.

Turning to `O=C(NC(=O)c1c(F)cccc1F)Nc1ccc(I)c(F)c1` [Compound G, N-2,6-difluorobenzoyl-N'-3-fluoro-4-iodophenylurea], the mortality at 0.4 ppm in data set [1] (setting [10]) was determined as 10%; in data set [3] (setting [13]), 5%. Also, the mortality at 2 ppm is 55% in data set [1] (setting [11]) and 35% in data set [3] (setting [14]). For the same compound, in data set [5], the mortality at 250 mg amounted to 0%. Besides, the mortality at 50 ppm in data set [2] (setting [12]) came to 5%; in [4] (setting [15]), 50%.

As a reminder, the LD50 is the dose at which mortality reaches 50%. Low values mean greater toxicity, high ones lower toxicity. On to `O=C(NC(=O)c1c(F)cccc1F)Nc1ccc(Cl)cc1F` [Compound No. 1, N-2,6-Difluorobenzoyl-N'-2-fluoro-4-chlorophenylurea], for which, in [1], the mortality at 0.4 ppm was found to be 80% and the mortality at 2 ppm came to 100%. In addition, the LC50 at 72 h in [6] was at least 10 µg/mL. In data set [2] (48 h), the mortality at 10 ppm stood at 60%. Also, in data set [7], the LD50 is at least 3000 mg/kg. Further, the “insecticidal and ovicidal effect” value in data set [8] was “excellent insecticidal and ovicidal effect”. Also, in [4] (setting [15]), the mortality at 50 ppm was 100%.

Regarding `O=C(NC(=O)c1c(F)cccc1F)Nc1ccc(Br)cc1F` [Compound No. 2, N-2,6-difluorobenzoyl-N'-2-fluoro-4-bromophenylurea], in data set [1], the mortality at 0.4 ppm came out at 70% and the mortality at 2 ppm turned out to be 100%. Besides, the mortality at 250 mg in data set [5] was 80%. The mortality at 10 ppm in [2] (48 h) came out at 60%. In addition, in [7], the LD50 is at least 3000 mg/kg. The “insecticidal and ovicidal effect” value in data set [8] was “excellent insecticidal and ovicidal effect”. In [4] (setting [15]), the mortality at 50 ppm turned out to be 100%.

As to `O=C(NC(=O)c1c(F)cccc1F)Nc1ccc(F)cc1F` [Compound No. 3, N-2,6-difluorobenzoyl-N'-2,4-difluorophenyl urea], in data set [1], the mortality at 0.4 ppm came out at 40% and the mortality at 2 ppm was 80%. Besides, the “action to penetrate into the plant body” value in [9] is reported as “excellent action to penetrate into the plant body”. The mortality at 250 mg in [5] amounted to 100%. Further, the mortality at 10 ppm in [2] (48 h) turned out to be 35%. The LD50 in data set [7] is at least 3000 mg/kg. The mortality at 0.4 ppm in data set [3] (in Glycine max, 96 h) came to 80%. The mortality at 50 ppm in data set [4] (setting [15]) was found to be 95%.

Turning to `O=C(NC(=O)c1c(F)cccc1F)Nc1ccc(I)cc1F` [Compound No. 4, N-2,6-difluorobenzoyl-N'-2-fluoro-4-iodophenylurea], in data set [1], the mortality at 0.4 ppm is 75% and the mortality at 2 ppm is 100%. Moreover, the mortality at 250 mg in [5] was found to be 55%. In addition, the mortality at 10 ppm in data set [2] (48 h) was 65%. This compound came in with an LD50 in data set [7] of at least 3000 mg/kg. Besides, in data set [3] (in Glycine max, 96 h), the mortality at 0.4 ppm is 100% and the mortality at 2 ppm amounted to 100%. Besides, the mortality at 50 ppm in [4] (setting [15]) worked out at 100%.
